Assay results published in patent US20230203043A1, “NOVEL IMIDAZOPYRAZINE DERIVATIVES” (Hoffmann-La Roche Inc., priority 2020, published 2023).
Structures can show the parent of a compound that is named as a salt. Where two headings read alike, the source gives them in different places.

System: Acinetobacter baumannii ATCC17961
Assay: Antimicrobial susceptibility testing: 90% growth inhibitory concentration (IC90) determination in Iso-Sensitest broth, OD600 growth
Format: cell-based
Settings: Acinetobacter baumannii, ATCC17961, 16 h
Method in brief: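 Growth inhibition is calculated during the logarithmic phase from OD600 readings taken every 20 minutes across 16 h at 35±2° C. Bacteria at ~5×10^(5) CFU/ml face twofold dilution series (e.g. 50 to 0.097 μM final).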

[1] = read-out: A. baumannii ATCC 17961 IC90 (uM), strain ATCC 17961, OD600 growth over 16 h
[2] = strain ATCC 17961, OD600 growth over 16 h, read-out: A. baumannii ATCC 17961 IC90

Structure (SMILES)	IC90 [1] [µM]	IC90 [2] [µM]
CCc1cc(Nc2nccn3c(-c4c[nH]nc4C(F)(F)F)cnc23)ccc1C(=O)N[C@@H](C)CN [Example 349, N-[(2S)-1-aminopropan-2-yl]-2-ethyl-4-[[3-[3-(trifluoromethyl)-1H-pyrazol-4-yl]imidazo[1,2-a]pyrazin-8-yl]amino]benzamide formate]	1.63	–
CCc1cc(Nc2nccn3c(-c4c[nH]nc4C(F)(F)F)cnc23)ccc1C(=O)NC [Example 350, 2-ethyl-N-methyl-4-[[3-[3-(trifluoromethyl)-1H-pyrazol-4-yl]imidazo[1,2-a]pyrazin-8-yl]amino]benzamide]	–	0.371
C#CCn1cc(-c2cnc3c(Nc4ccc(C(=O)NC)c(Cl)c4)nccn23)c(C(F)(F)F)n1 [Example 351, 2-chloro-N-methyl-4-[[3-[1-prop-2-ynyl-3-(trifluoromethyl)pyrazol-4-yl]imidazo[1,2-a]pyrazin-8-yl]amino]benzamide]	–	0.099
O=C(c1ccc(Nc2nccn3c(-c4c[nH]nc4C(F)(F)F)cnc23)cc1Cl)N1CCN(C(=O)C2(O)CCCNC2)CC1 (stereo not drawn) [Example 352, [2-chloro-4-[[3-[3-(trifluoromethyl)-1H-pyrazol-4-yl]imidazo[1,2-a]pyrazin-8-yl]amino]phenyl]-[4-(3-hydroxypiperidine-3-carbonyl)piperazin-1-yl]methanone]	–	0.229
CCc1cc(Nc2nccn3c(-c4c[nH]nc4C(F)(F)F)cnc23)ccc1C(=O)N1CCN(C(=O)C2CCNCC2)CC1 [Example 354, [2-ethyl-4-[[3-[3-(trifluoromethyl)-1H-pyrazol-4-yl]imidazo[1,2-a]pyrazin-8-yl]amino]phenyl]-[4-(piperidine-4-carbonyl)piperazin-1-yl]methanone hydrochloride]	–	0.918
CCc1cc(Nc2nccn3c(-c4c[nH]nc4C(F)(F)F)cnc23)ccc1C(=O)N1CCN(C(=O)C2(O)CCNCC2)CC1 [Example 355, [2-ethyl-4-[[3-[3-(trifluoromethyl)-1H-pyrazol-4-yl]imidazo[1,2-a]pyrazin-8-yl]amino]phenyl]-[4-(4-hydroxypiperidine-4-carbonyl)piperazin-1-yl]methanone hydrochloride]	–	1.3
CNC(=O)c1ccc(Nc2nccn3c(-c4cn(CC(N)=O)nc4C(F)(F)F)cnc23)cc1Cl [Example 357, 4-[[3-[1-(2-amino-2-oxoethyl)-3-(trifluoromethyl)pyrazol-4-yl]imidazo[1,2-a]pyrazin-8-yl]amino]-2-chloro-N-methylbenzamide]	–	1.59
CNC(=O)c1ccc(Nc2nccn3c(-c4cn(CCC#N)nc4C(F)(F)F)cnc23)cc1Cl [Example 358, 2-chloro-4-[[3-[1-(2-cyanoethyl)-3-(trifluoromethyl)pyrazol-4-yl]imidazo[1,2-a]pyrazin-8-yl]amino]-N-methylbenzamide]	–	0.189
CNC(=O)c1ccc(Nc2nccn3c(-c4cn(CCCC#N)nc4C(F)(F)F)cnc23)cc1Cl [Example 359, 2-chloro-4-[[3-[1-(3-cyanopropyl)-3-(trifluoromethyl)pyrazol-4-yl]imidazo[1,2-a]pyrazin-8-yl]amino]-N-methylbenzamide]	–	0.303
Cc1cc(Nc2nccn3c(-c4c[nH]nc4C(F)(F)F)cnc23)ccc1C(=O)NCCOCCN [Example 360, N-[2-(2-aminoethoxy)ethyl]-2-methyl-4-[[3-[3-(trifluoromethyl)-1H-pyrazol-4-yl]imidazo[1,2-a]pyrazin-8-yl]amino]benzamide hydrochloride]	–	0.257
NCCOCCNC(=O)c1ccc(Nc2nccn3c(-c4c[nH]nc4C(F)(F)F)cnc23)cc1Cl [Example 361, N-[2-(2-aminoethoxy)ethyl]-2-chloro-4-[[3-[3-(trifluoromethyl)-1H-pyrazol-4-yl]imidazo[1,2-a]pyrazin-8-yl]amino]benzamide hydrochloride]	–	0.267
NCCCCNC(=O)c1ccc(Nc2nccn3c(-c4c[nH]nc4C(F)(F)F)cnc23)cc1Cl [Example 362, N-(4-aminobutyl)-2-chloro-4-[[3-[3-(trifluoromethyl)-1H-pyrazol-4-yl]imidazo[1,2-a]pyrazin-8-yl]amino]benzamide]	–	0.35
NCCNC(=O)c1ccc(Nc2nccn3c(-c4c[nH]nc4C(F)(F)F)cnc23)cc1Cl [Example 363, N-(2-aminoethyl)-2-chloro-4-[[3-[3-(trifluoromethyl)-1H-pyrazol-4-yl]imidazo[1,2-a]pyrazin-8-yl]amino]benzamide]	–	0.738
NCCCNC(=O)c1ccc(Nc2nccn3c(-c4c[nH]nc4C(F)(F)F)cnc23)cc1Cl [Example 364, N-(3-aminopropyl)-2-chloro-4-[[3-[3-(trifluoromethyl)-1H-pyrazol-4-yl]imidazo[1,2-a]pyrazin-8-yl]amino]benzamide]	–	1.13
CCc1cc(Nc2nccn3c(-c4c[nH]nc4C(F)(F)F)cnc23)ccc1C(=O)NCCCN [Example 365, N-(3-aminopropyl)-2-ethyl-4-[[3-[3-(trifluoromethyl)-1H-pyrazol-4-yl]imidazo[1,2-a]pyrazin-8-yl]amino]benzamide hydrochloride]	–	1.4
N#CCn1cc(-c2cnc3c(Nc4ccc(C(=O)N5CCN(C(=O)C6CCNCC6)CC5)c(Cl)c4)nccn23)c(C(F)(F)F)n1 [Example 366, 2-[4-[8-[3-chloro-4-[4-(piperidine-4-carbonyl)piperazine-1-carbonyl]anilino]imidazo[1,2-a]pyrazin-3-yl]-3-(trifluoromethyl)pyrazol-1-yl]acetonitrile formate]	0.296	–
Cc1cc(Nc2nccn3c(-c4cn(CC#N)nc4C(F)(F)F)cnc23)ccc1C(=O)NCCCNC(=O)[C@@H]1C[C@@H](O)CN1 [Example 367, (2S,4R)-N-[3-[[4-[[3-[1-(cyanomethyl)-3-(trifluoromethyl)pyrazol-4-yl]imidazo[1,2-a]pyrazin-8-yl]amino]-2-methylbenzoyl]amino]propyl]-4-hydroxypyrrolidine-2-carboxamide formate]	0.468	–
O=C(NC1CC(NC(=O)[C@@H]2C[C@@H](O)CN2)C1)c1ccc(Nc2nccn3c(-c4c[nH]nc4C(F)(F)F)cnc23)cc1Cl (stereo partly drawn) [Example 370, (2S,4R)-N-[3-[[2-chloro-4-[[3-[3-(trifluoromethyl)-1H-pyrazol-4-yl]imidazo[1,2-a]pyrazin-8-yl]amino]benzoyl]amino]cyclobutyl]-4-hydroxypyrrolidine-2-carboxamide]	–	0.177
O=C(NC1CN(C(=O)[C@@H]2C[C@@H](O)CN2)C1)c1ccc(Nc2nccn3c(-c4c[nH]nc4C(F)(F)F)cnc23)cc1Cl [Example 371, 2-chloro-N-[1-[(2S,4R)-4-hydroxypyrrolidine-2-carbonyl]azetidin-3-yl]-4-[[3-[3-(trifluoromethyl)-1H-pyrazol-4-yl]imidazo[1,2-a]pyrazin-8-yl]amino]benzamide]	–	0.309
CCc1cc(Nc2nccn3c(-c4c[nH]nc4C(F)(F)F)cnc23)ccc1C(=O)N1CCC(CN)CC1 [Example 372, [4-(aminomethyl)piperidin-1-yl]-[2-ethyl-4-[[3-[3-(trifluoromethyl)-1H-pyrazol-4-yl]imidazo[1,2-a]pyrazin-8-yl]amino]phenyl]methanone hydrochloride]	–	0.957
O=C(NC1CCC(NC(=O)[C@@H]2C[C@@H](O)CN2)CC1)c1ccc(Nc2nccn3c(-c4c[nH]nc4C(F)(F)F)cnc23)cc1Cl (stereo partly drawn) [Example 374, (2S,4R)-N-[4-[[2-chloro-4-[[3-[3-(trifluoromethyl)-1H-pyrazol-4-yl]imidazo[1,2-a]pyrazin-8-yl]amino]benzoyl]amino]cyclohexyl]-4-hydroxypyrrolidine-2-carboxamide]	–	0.237
Cc1cc(Nc2nccn3c(-c4cn(CC#N)nc4C(F)(F)F)cnc23)ccc1C(=O)NCCNC(=O)[C@@H]1C[C@@H](O)CN1 [Example 375, (2S,4R)-N-[2-[[4-[[3-[1-(cyanomethyl)-3-(trifluoromethyl)pyrazol-4-yl]imidazo[1,2-a]pyrazin-8-yl]amino]-2-methylbenzoyl]amino]ethyl]-4-hydroxypyrrolidine-2-carboxamide formate]	0.338	–
Cc1cc(Nc2nccn3c(-c4cn(CC#N)nc4C(F)(F)F)cnc23)ccc1C(=O)N1CCN(C(=O)N[C@H]2CNC[C@@H]2O)CC1 [Example 376, 4-[4-[[3-[1-(cyanomethyl)-3-(trifluoromethyl)pyrazol-4-yl]imidazo[1,2-a]pyrazin-8-yl]amino]-2-methylbenzoyl]-N-[(3S,4S)-4-hydroxypyrrolidin-3-yl]piperazine-1-carboxamide formate]	0.43	–
O=C(N[C@H]1CCNC1)c1ccc(Nc2nccn3c(-c4c[nH]nc4C(F)(F)F)cnc23)cc1Cl [Example 378, 2-chloro-N-[(3S)-pyrrolidin-3-yl]-4-[[3-[3-(trifluoromethyl)-1H-pyrazol-4-yl]imidazo[1,2-a]pyrazin-8-yl]amino]benzamide]	–	0.562
O=C(N[C@@H]1CCNC1)c1ccc(Nc2nccn3c(-c4c[nH]nc4C(F)(F)F)cnc23)cc1Cl [Example 379, 2-chloro-N-[(3R)-pyrrolidin-3-yl]-4-[[3-[3-(trifluoromethyl)-1H-pyrazol-4-yl]imidazo[1,2-a]pyrazin-8-yl]amino]benzamide]	–	0.576
Cc1cc(Nc2nccn3c(-c4cn(CC#N)nc4C(F)(F)F)cnc23)ccc1C(=O)N1CCN(C(=O)[C@@H]2CCNC[C@H]2O)CC1 [Example 380, formic acid; 2-[4-[8-[4-[4-[(3S,4R)-3-hydroxypiperidine-4-carbonyl]piperazine-1-carbonyl]-3-methylanilino]imidazo[1,2-a]pyrazin-3-yl]-3-(trifluoromethyl)pyrazol-1-yl]acetonitrile]	0.623	–
O=C(NC1CCN(C(=O)[C@@H]2C[C@@H](O)CN2)CC1)c1ccc(Nc2nccn3c(-c4c[nH]nc4C(F)(F)F)cnc23)cc1Cl [Example 381, 2-chloro-N-[1-[(2S,4R)-4-hydroxypyrrolidine-2-carbonyl]piperidin-4-yl]-4-[[3-[3-(trifluoromethyl)-1H-pyrazol-4-yl]imidazo[1,2-a]pyrazin-8-yl]amino]benzamide]	–	0.63
